Entries after “also recorded” stand apart in the source; their conditions may differ.
Columns and labels:
DPP-IV [1] = biological target: T1, DPP-IV (Homo sapiens, UniProt P27487); assay: DPP-IV inhibitory assay (Gly-Pro p-nitroanilide); assay type: biochemical; conditions: n = 3; for DPP-IV inhibition, comparison among peptides I-IV: 62.5-1500 μg/mL
T1 construct: purchased Sigma-Aldrich D4943-1VL; host or cells: baculovirus-infected Sf9 insect cells
Text: The enzyme, human recombinant DPP-IV (Lot: D4943-1VL), expressed in baculovirus-infected S/9 cells, the substrate, Gly-Pro p-nitroanilide (Gly-Pro pNA; Lot: G0513), and streptozotocin (STZ; Lot: V900890) were purchased from Sigma-Aldrich (St. Louis, MO, USA). […] Other reagents, such as Folin–Ciocalteu (Lot: 73104861), gallic acid (Lot: XW01499171), and Coomassie Blue R-250 (Lot: 71011381) were purchased from Sinopharm Chemical Reagent Co., Ltd. (Shanghai, China). Lapsang souchon (LS), a typical Chinese black tea, was obtained from a tea market in Hangzhou.
The DPP-IV inhibitory activities of the substance after ultrafiltration and the peptides identified (synthesized by Chinese Peptide Company, Hangzhou, China; purity of 96–97%) were evaluated. The DPP-IV inhibition assay was performed as described by Velarde-Salcedo et al., with slight modifications. The assay was performed in 96-well microplates, and 100 μL of enzyme (final concentration 1.9 U/L) was preincubated with the samples (the concentrated ultra-filtrate mentioned above and the synthesized peptide, with concentrations from 62.5–1500 μg/mL) at 37 °C for 15 min prior to the initiation of the reaction, by adding 50 μL of Gly-Pro p-nitroanilide (final concentration 0.29 mM). The final volume of the reaction system was 200 μL, and the reaction was conducted in 100 mM Tris-HCl buffer (pH 7.6). The absorbance was obtained at 405 nm in a microplate reader (Synergy H1, BioTek Instruments Inc., Winooski, VT, USA), after incubation at 37 °C for 1 h.

[2] = Blood GLP-1 in STZ-induced hyperglycemic mice; assay type: in vivo, mouse (male ICR); conditions: gavage daily; for GLP-1 concentration vs STZ control, significance / GLP-1 concentration in blood: day 57; for GLP-1 concentration in blood: peptide II 400 mg/kg (n = 7) or sitagliptin 4 mg/kg (n = 6), mouse ELISA, STZ control 9.85 ± 1.96, normal control 15.52 ± 3.17 pmol/L, mean ± SD; for Increase in GLP-1 concentration vs STZ control: peptide II 400 mg/kg or sitagliptin 4 mg/kg, after 57 days
Protocol: (§1) Male ICR mice at the age of four weeks were obtained from the Laboratory Animal Center of Zhejiang University (Hangzhou, China) and housed under a 12 h light/dark cycle with free access to food and water. The animal protocol was approved by the Committee on the Ethics of Animal Experiments of Zhejiang University (Permit Number: SYXK 2018-0001, 3 January 2018), and all experiments were performed in accordance with Zhejiang University Laboratory Animal Center Guidelines and the Regulations for Laboratory Animals Care and Usage. The mice were divided into four groups: non-STZ, STZ, STZ plus sitagliptin, and STZ plus peptide II. The mice were injected with STZ (50 mg/kg) dissolved into sodium citrate buffer (pH 4.5) for three successive days to induce hyperglycemia. Every group contained 10 mice. […] The levels of HbA1c were measured using an automatic analyzer MQ-2000pt produced by Medconn Medical Technology Co. (Shanghai, China). Plasma insulin, glucagon, GLP-1, and DPP-IV concentrations were measured using a mouse ELISA kit (Shanghai Lengton Bioscience Co., Ltd., Shanghai, China).

DPP-IV [3] = biological target: T1, DPP-IV; assay: Enzyme kinetics, Lineweaver-Burk plot, mode of inhibition; assay type: biochemical; conditions: peptide II 0, 1.02 and 2.04 mM; Gly-Pro pNA 0.29-4.64 mM; Tris-HCl pH 7.6, 37 °C, 60 min, 405 nm
Protocol: The initial rate of hydrolysis of the substrate Gly-Pro p-nitroanilide by DPP-IV was measured using substrate concentrations of 0.29, 0.58, 1.16, 2.32, and 4.64 mM (final assay concentrations) in the absence (100 mM Tris-HCl buffer, pH 7.6) and presence of different concentrations of the peptide II (1.02 and 2.04 mM, respectively). The substrate (50 μL), with or without an inhibitor (50 μL), was pre-incubated at 37 °C for 15 min, and the reaction was started by the addition of 100 μL of the DPP-IV enzyme (final concentration: 1.9 U/L). The absorbance of the released p-nitroanilide was monitored at 37 °C and 405 nm for 60 min using a microplate reader (Synergy H1, BioTek Instruments Inc.). Lineweaver–Burk plots of DPP-IV activity in the absence and presence of peptide II were created to show the modes of inhibition.

[4] = Plasma glucagon in STZ-induced hyperglycemic mice; assay type: in vivo, mouse (male ICR); conditions: peptide II 400 mg/kg or sitagliptin 4 mg/kg, gavage daily, day 57, vs STZ control
Protocol: as §1

pancreatic alpha-cells = assay: Islet alpha-cell (glucagon-positive) area in STZ-treated mice, immunohistochemistry; assay type: in vivo, mouse (male ICR); conditions: gavage daily; for Alpha-cell area / proliferation: peptide II 400 mg/kg (n = 7) or sitagliptin 4 mg/kg (n = 6), day 57, vs STZ control
Protocol: as §1, with “pancreases” for “levels of HbA1c”, “resected immediately after the mice were sacrificed and fixed in 4% (w/v) formaldehyde. The immunohistochemistry procedures were performed according to Y. Takeda et al.. The stained sections were observed by an inverted fluorescence microscopy (NIKON ECLIPSE TI-SR; Nikon Corporation, Tokyo, Japan), and digital images were collected” for “measured”, “Nikon imaging system (NIKON DS-U3).” for “an automatic analyzer MQ-2000pt produced by Medconn Medical Technology Co. (Shanghai, China). Plasma insulin, glucagon, GLP-1, and DPP-IV concentrations were measured using a mouse ELISA kit (Shanghai Lengton Bioscience Co., Ltd., Shanghai, China).”

[5] = HbA1c in STZ-induced hyperglycemic mice; assay type: in vivo, mouse (male ICR); conditions: gavage daily, 57 days
Protocol: as §1

[6] = Plasma insulin in STZ-induced hyperglycemic mice; assay type: in vivo, mouse (male ICR); conditions: for Blood insulin level: peptide II 400 mg/kg (n = 7) or sitagliptin 4 mg/kg (n = 6), mouse ELISA, STZ control 9.79 ± 3.62 mU/L, mean ± SD
Protocol: as §1

pancreatic beta-cells = assay: Islet beta-cell (insulin-positive) area and function in STZ-treated mice, immunohistochemistry; assay type: in vivo, mouse (male ICR); conditions: gavage daily; for Beta-cell area: peptide II 400 mg/kg (n = 7) or sitagliptin 4 mg/kg (n = 6), day 57, insulin-positive area per islet area
Protocol: as §1, with “pancreases” for “levels of HbA1c”, “resected immediately after the mice were sacrificed and fixed in 4% (w/v) formaldehyde. The immunohistochemistry procedures were performed according to Y. Takeda et al.. The stained sections were observed by an inverted fluorescence microscopy (NIKON ECLIPSE TI-SR; Nikon Corporation, Tokyo, Japan), and digital images were collected” for “measured”, “Nikon imaging system (NIKON DS-U3).” for “an automatic analyzer MQ-2000pt produced by Medconn Medical Technology Co. (Shanghai, China). Plasma insulin, glucagon, GLP-1, and DPP-IV concentrations were measured using a mouse ELISA kit (Shanghai Lengton Bioscience Co., Ltd., Shanghai, China).”

T1 sequence (P27487 whole entry): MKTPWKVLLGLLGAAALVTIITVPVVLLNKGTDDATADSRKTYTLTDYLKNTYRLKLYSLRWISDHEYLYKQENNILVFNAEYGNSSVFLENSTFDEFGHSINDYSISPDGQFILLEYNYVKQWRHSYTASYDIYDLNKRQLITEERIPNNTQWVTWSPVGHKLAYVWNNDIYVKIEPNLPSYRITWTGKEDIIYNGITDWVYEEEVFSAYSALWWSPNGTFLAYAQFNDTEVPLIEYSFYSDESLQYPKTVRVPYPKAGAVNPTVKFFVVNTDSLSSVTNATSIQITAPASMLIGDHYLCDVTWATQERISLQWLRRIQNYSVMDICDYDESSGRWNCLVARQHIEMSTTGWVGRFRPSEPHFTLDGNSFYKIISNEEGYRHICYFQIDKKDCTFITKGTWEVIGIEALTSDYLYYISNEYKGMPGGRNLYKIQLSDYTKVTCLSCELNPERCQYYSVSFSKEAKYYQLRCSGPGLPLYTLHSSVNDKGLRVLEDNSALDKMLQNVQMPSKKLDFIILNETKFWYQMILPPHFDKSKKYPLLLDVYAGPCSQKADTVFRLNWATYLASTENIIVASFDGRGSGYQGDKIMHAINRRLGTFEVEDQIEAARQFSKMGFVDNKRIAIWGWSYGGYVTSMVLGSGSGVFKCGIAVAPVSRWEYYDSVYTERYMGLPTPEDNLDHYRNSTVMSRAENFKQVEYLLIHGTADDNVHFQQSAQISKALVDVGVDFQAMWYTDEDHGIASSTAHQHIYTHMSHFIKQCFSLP

Row | Compound | DPP-IV inhibition, comparison among peptides I-IV (DPP-IV [1]) | GLP-1 concentration vs STZ control, significance [2] | GLP-1 concentration in blood [2] | Increase in GLP-1 concentration vs STZ control [2] | Plasma glucagon levels [4] | Alpha-cell area / proliferation (pancreatic alpha-cells) | Blood insulin level ([6]; gavage daily, day 57) | Beta-cell area (pancreatic beta-cells) | other results
1 | QTDEYGNPPR [Peptide I] | lower than peptide IV, but higher than peptide III |  |  |  |  |  |  |  | 
2 | AGFAGDDAPR [Peptide II] | much higher inhibitory activity at both low and high concentrations; also recorded: the greatest DPP-IV inhibitory activity | significantly higher than that in STZ control | 19.22 ± 6.79 pmol/L | 9.3 pmol/L | no amelioration of the glucagon levels | suppressed proliferation of pancreatic alpha-cells; also recorded: lower than that in the STZ control group, but not significantly | 42.30 ± 12.64 mU/L | not obvious | Mode of DPP-IV inhibition (DPP-IV [3]): competitive inhibitory mode; HbA1c level vs STZ control ([5]; peptide II 400 mg/kg, n = 7): did not show a significant difference in HbA1c levels compared to STZ control animals; DPP-IV enzyme activity inhibited (DPP-IV [1]; 1000 μg/mL synthesized peptide, Tris-HCl pH 7.6, 37 °C, preincubation 15 min, 1 h, 405 nm): ~50%; Increase of plasma insulin level vs STZ control ([6]; peptide II 400 mg/kg or sitagliptin 4 mg/kg, gavage daily, 57 days): 4.3 fold; Insulin improvement compared with sitagliptin ([6]; peptide II 400 mg/kg vs sitagliptin 4 mg/kg, day 57): improved the insulin levels more effectively than sitagliptin; Beta-cell proliferation / function (pancreatic beta-cells; peptide II 400 mg/kg, 57 days): improved function of pancreatic beta-cells; also recorded: only slight proliferation
3 | N[C@@H](CC(=O)N1CCn2c(nnc2C(F)(F)F)C1)Cc1cc(F)c(F)cc1F [sitagliptin, reference compound] |  | without any significant difference compared with the STZ control | 12.57 ± 3.38 pmol/L | 2.7 pmol/L | no amelioration of the glucagon levels | suppressed | 27.35 ± 5.65 mU/L | not obvious | Decrease of alpha-cell area vs STZ-treated mice (pancreatic alpha-cells; sitagliptin 4 mg/kg, day 57, glucagon-positive area per islet area, n = 6): 37.8%; HbA1c level ([5]; sitagliptin 4 mg/kg, n = 6, STZ control 7.30 ± 0.70%, mean ± SD): 5.98 ± 1.63%
4 | IQDKEGIPPDQQR [IV] | surpassed by peptide II with increasing concentration |  |  |  |  |  |  |  | 
5 | IDESLR [Peptide III] |  |  |  |  |  |  |  |  | DPP-IV inhibition (DPP-IV [1]; 1500 μg/mL, compared among peptides I-IV): the lowest activity; DPP-IV inhibition (DPP-IV [1]; concentration below 1000 μg/mL): almost no inhibition

— PMC6359713, “A Novel Dipeptidyl Peptidase IV Inhibitory Tea Peptide Improves Pancreatic β-Cell Function and Reduces α-Cell Proliferation in Streptozotocin-Induced Diabetic Mice” (International Journal of Molecular Sciences, 2019)
